Paper PMC10542788, “Discovery of a cystathionine γ-lyase (CSE) selective inhibitor targeting active-site pyridoxal 5′-phosphate (PLP) via Schiff base formation” (Scientific Reports, 2023)

Columns and labels:
[1] = tested on: MGL; assay: MGL inhibition, HSip-1 fluorescence; assay type: biochemical; settings: 30 µM
Description: (§1) The selectivity of 1, 2 and PAG for rCSE over other RSS-producing enzymes, CBS and 3MST, was examined (Fig. 4a). CBS is a PLP-dependent enzyme, like CSE, and produces H2S from cysteine and homocysteine as substrates. 3MST is also an H2S-producing enzyme, but is not PLP-dependent and uses 3-mercaptopyruvate as a substrate. The amount of H2S produced by CBS or 3MST was evaluated in the presence or absence of the inhibitor by measuring the fluorescence intensity of HSip-1. […] We also examined the inhibitory activity towards two other PLP-dependent enzymes, MGL and ALT. MGL metabolizes L-methionine to α-ketobutyric acid, methanethiol and ammonia, and is inhibited by PAG[14]. MGL also produces H2S from homocysteine as a substrate, and this activity of MGL can be measured by fluorescence detection with HSip-1. […] The enzymatic activity of ALT can be assessed by means of a coupled assay using the reduction of pyruvate to L-lactate with lactate dehydrogenase and NADH and measuring the change in absorption of NADH.
10 µL of 200 µM homocysteine in 30 mM HEPES (pH 7.4) was added to 10 µL of a solution containing 20 µg/mL MGL (Sigma-Aldrich), 100 µM PLP, 1 µM HSip-1, 0.005% tween 20 and various concentrations of the inhibitor (0.5% DMSO as a cosolvent). The mixture was incubated at 25 °C for 100 min and the fluorescence intensity of HSip-1 was measured with a microplate reader.

[2] = tested on: methionine γ-lyase (MGL); parameters: method as in PMID 12920135; settings: cited from earlier work
[3] = tested on: ALT; assay: ALT inhibition, coupled absorbance assay (NADH, 340 nm); assay type: biochemical; settings: 30 µM
Description: as §1
An alanine aminotransferase activity assay kit (BioVision, Inc.) was used to measure the activity of ALT. A mixture of L-alanine, NADH, LDH (lactate dehydrogenase) and ALT was incubated at 37 °C for 15 min, then α-ketoglutarate was added to the mixture and the absorbance at 340 nm was measured with a microplate reader.

[4] = tested on: L-alanine transaminase (ALT); parameters: method as in PMID 7364752; settings: cited from earlier work
[5] = target: T1, rat CSE (rCSE) (Rattus norvegicus, UniProt P18757); assay: rCSE inhibition, H2S detection by fluorescence of HSip-1; assay type: biochemical; settings: for IC50: fluorescence assay with HSip-1, 1.5 mM cysteine, 100 μM PLP, mean ± S.E., read-out: IC50, inhibitory activity towards rCSE
T1 construct: His-tag (C); made in house; host or cells: E. coli BL21
Description: The developed assay system employs a plate reader to detect H2S production by CSE as a fluorescence signal in a solution containing 30 μg/mL rat CSE (rCSE), 1 μM HSip-1, 100 μM pyridoxal-5′-phosphate (PLP) and 1.5 mM cysteine (a substrate) in a 384-well plate format (Fig. 1b). A large amount of rCSE was expressed in E. coli and purified on a Ni Sepharose 6 Fast Flow module. We then performed screening of a chemical library consisting of 161,600 compounds (from the Drug Discovery Initiative, the University of Tokyo) for CSE inhibitors (Fig. 1c). […] Then, a confirmation test for repeatability (n = 4) of the 160 compounds selected in the 1st screening was performed to exclude false-positives. In this step, we also excluded cysteine-reactive compounds by changing the addition order of the rCSE and cysteine (substrate) solutions. In other words, in the 1st screening, the enzyme solution was firstly added to each library compound, while in the confirmation test for repeatability of the hit compounds in the 1st screening, we firstly added the cysteine solution to each compound. This enabled us to identify and exclude cysteine-reactive compounds, based on their reaction with the added cysteine. These procedures left 80 compounds showing both more than 40% inhibition at 10 µM and similar % inhibition of rCSE irrespective of the addition order of the rCSE and cysteine solutions. In the 2nd screening, we examined the reactivity of these 80 compounds with H2S using an H2S donor[17] to exclude H2S-reactive compounds. […] In this assay, we selected 13 compounds which were non-reactive to H2S, but one was relatively unstable and two of them were the same compound, so that 11 compounds were finally selected. These compounds included some hydrazine and hydrazide derivatives, so we performed titration assay of the selected 11 compounds together with 9 commercially available hydrazine and hydrazide compounds (Supplementary Fig. S3) and calculated the half-maximal (50%) inhibitory concentration (IC50) of each compound.
The fluorescence intensity of HSip-1 was measured (λex = 490 nm, λem = 510 nm) with a microplate reader (EnVision, Perkin Elmer).
10 µL of 1.5 mM cysteine solution in 30 mM HEPES (pH 7.4) was added to 10 µL of solution containing 30 µg/mL rCSE, 100 µM PLP, 1 µM HSip-1, 0.005% tween 20 and the test compound (0.5% DMSO as a cosolvent). The mixture was incubated at 25 °C for 3 h and the fluorescence intensity of HSip-1 was measured with a microplate reader.

C#CCC(N)C(=O)O (racemic) [PAG, D,L-Propargylglycine, reference compound]
inhibitory activity towards MGL / selectivity for CSE over MGL [1]: inhibited both MGL and ALT
inhibition of MGL [2]: inhibited
inhibitory activity towards ALT / selectivity for CSE over ALT [3]: inhibited both MGL and ALT
inhibition of ALT [4]: inhibited

CNC(=O)C(=O)NN [Compound 2]
inhibitory activity towards MGL / selectivity for CSE over MGL [1]: some inhibitory activity towards MGL and ALT
selectivity for CSE over other enzymes (CBS, 3MST, MGL, ALT) ([5]; 3 µM): high selectivity for CSE
IC50 [5]: 0.43 ± 0.02 µM
inhibitory activity towards ALT / selectivity for CSE over ALT [3]: some inhibitory activity towards MGL and ALT

CCNC(=O)C(=O)NN [Compound 3]
IC50 [5]: > 100 µM

NNC(=O)C(=O)Nc1ccccc1 [Compound 4]
IC50 [5]: > 100 µM
